Results from the NIST ThermoML archive (doi:10.1016/j.jct.2016.08.005).

Settings: Liquid, Vibrating tube method

Cc1ccc(C)s1 [2,5-dimethylthiophene]
Settings | mass density [kg/m3]
283.15 K, 100 kPa | 995.51
283.15 K, 2000 kPa | 996.96
283.15 K, 5000 kPa | 999.21
283.15 K, 7000 kPa | 1000.68
283.15 K, 10000 kPa | 1002.83
283.15 K, 15000 kPa | 1006.35
283.15 K, 20000 kPa | 1009.74
283.15 K, 25000 kPa | 1013.04
283.15 K, 30000 kPa | 1016.24
283.15 K, 35000 kPa | 1019.33
283.15 K, 40000 kPa | 1022.34
283.15 K, 45000 kPa | 1025.27
283.15 K, 50000 kPa | 1028.12
283.15 K, 55000 kPa | 1030.9
283.15 K, 60000 kPa | 1033.6
283.15 K, 65000 kPa | 1036.24
288.15 K, 100 kPa | 990.41
288.15 K, 2000 kPa | 991.9
288.15 K, 5000 kPa | 994.21
288.15 K, 7000 kPa | 995.72
288.15 K, 10000 kPa | 997.94
288.15 K, 15000 kPa | 1001.53
288.15 K, 20000 kPa | 1005.01
288.15 K, 25000 kPa | 1008.38
288.15 K, 30000 kPa | 1011.66
288.15 K, 35000 kPa | 1014.81
288.15 K, 40000 kPa | 1017.89
288.15 K, 45000 kPa | 1020.88
288.15 K, 50000 kPa | 1023.78
288.15 K, 55000 kPa | 1026.62
288.15 K, 60000 kPa | 1029.38
288.15 K, 65000 kPa | 1032.06
293.15 K, 100 kPa | 985.3
293.15 K, 2000 kPa | 986.82
293.15 K, 5000 kPa | 989.21
293.15 K, 7000 kPa | 990.74
293.15 K, 10000 kPa | 993.02
293.15 K, 15000 kPa | 996.71
293.15 K, 20000 kPa | 1000.28
293.15 K, 25000 kPa | 1003.72
293.15 K, 30000 kPa | 1007.07
293.15 K, 35000 kPa | 1010.31
293.15 K, 40000 kPa | 1013.45
293.15 K, 45000 kPa | 1016.49
293.15 K, 50000 kPa | 1019.47
293.15 K, 55000 kPa | 1022.35
293.15 K, 60000 kPa | 1025.15
293.15 K, 65000 kPa | 1027.88
298.15 K, 100 kPa | 980.2
298.15 K, 2000 kPa | 981.78
298.15 K, 5000 kPa | 984.2
298.15 K, 7000 kPa | 985.8
298.15 K, 10000 kPa | 988.14
298.15 K, 15000 kPa | 991.93
298.15 K, 20000 kPa | 995.59
298.15 K, 25000 kPa | 999.13
298.15 K, 30000 kPa | 1002.53
298.15 K, 35000 kPa | 1005.84
298.15 K, 40000 kPa | 1009.04
298.15 K, 45000 kPa | 1012.17
298.15 K, 50000 kPa | 1015.2
298.15 K, 55000 kPa | 1018.14
298.15 K, 60000 kPa | 1021.01
298.15 K, 65000 kPa | 1023.8
303.15 K, 100 kPa | 975.1
303.15 K, 2000 kPa | 976.72
303.15 K, 5000 kPa | 979.23
303.15 K, 7000 kPa | 980.88
303.15 K, 10000 kPa | 983.27
303.15 K, 15000 kPa | 987.17
303.15 K, 20000 kPa | 990.9
303.15 K, 25000 kPa | 994.52
303.15 K, 30000 kPa | 998.02
303.15 K, 35000 kPa | 1001.4
303.15 K, 40000 kPa | 1004.69
303.15 K, 45000 kPa | 1007.85
303.15 K, 50000 kPa | 1010.94
303.15 K, 55000 kPa | 1013.93
303.15 K, 60000 kPa | 1016.85
303.15 K, 65000 kPa | 1019.68
308.15 K, 100 kPa | 970
308.15 K, 2000 kPa | 971.66
308.15 K, 5000 kPa | 974.22
308.15 K, 7000 kPa | 975.91
308.15 K, 10000 kPa | 978.38
308.15 K, 15000 kPa | 982.36
308.15 K, 20000 kPa | 986.2
308.15 K, 25000 kPa | 989.91
308.15 K, 30000 kPa | 993.47
308.15 K, 35000 kPa | 996.93
308.15 K, 40000 kPa | 1000.28
308.15 K, 45000 kPa | 1003.53
308.15 K, 50000 kPa | 1006.66
308.15 K, 55000 kPa | 1009.75
308.15 K, 60000 kPa | 1012.72
308.15 K, 65000 kPa | 1015.59
313.15 K, 100 kPa | 964.84
313.15 K, 2000 kPa | 966.6
313.15 K, 5000 kPa | 969.22
313.15 K, 7000 kPa | 970.97
313.15 K, 10000 kPa | 973.5
313.15 K, 15000 kPa | 977.58
313.15 K, 20000 kPa | 981.52
313.15 K, 25000 kPa | 985.31
313.15 K, 30000 kPa | 988.97
313.15 K, 35000 kPa | 992.49
313.15 K, 40000 kPa | 995.92
313.15 K, 45000 kPa | 999.23
313.15 K, 50000 kPa | 1002.44
313.15 K, 55000 kPa | 1005.56
313.15 K, 60000 kPa | 1008.58
313.15 K, 65000 kPa | 1011.53
318.15 K, 100 kPa | 959.75
318.15 K, 2000 kPa | 961.52
318.15 K, 5000 kPa | 964.24
318.15 K, 7000 kPa | 966
318.15 K, 10000 kPa | 968.6
318.15 K, 15000 kPa | 972.8
318.15 K, 20000 kPa | 976.83
318.15 K, 25000 kPa | 980.72
318.15 K, 30000 kPa | 984.44
318.15 K, 35000 kPa | 988.06
318.15 K, 40000 kPa | 991.55
318.15 K, 45000 kPa | 994.93
318.15 K, 50000 kPa | 998.2
318.15 K, 55000 kPa | 1001.39
318.15 K, 60000 kPa | 1004.46
318.15 K, 65000 kPa | 1007.46
323.15 K, 100 kPa | 954.64
323.15 K, 2000 kPa | 956.46
323.15 K, 5000 kPa | 959.26
323.15 K, 7000 kPa | 961.09
323.15 K, 10000 kPa | 963.75
323.15 K, 15000 kPa | 968.05
323.15 K, 20000 kPa | 972.19
323.15 K, 25000 kPa | 976.16
323.15 K, 30000 kPa | 979.99
323.15 K, 35000 kPa | 983.67
323.15 K, 40000 kPa | 987.24
323.15 K, 45000 kPa | 990.69
323.15 K, 50000 kPa | 994.03
323.15 K, 55000 kPa | 997.27
323.15 K, 60000 kPa | 1000.41
323.15 K, 65000 kPa | 1003.46
328.15 K, 100 kPa | 949.46
328.15 K, 2000 kPa | 951.34
328.15 K, 5000 kPa | 954.21
328.15 K, 7000 kPa | 956.1
328.15 K, 10000 kPa | 958.85
328.15 K, 15000 kPa | 963.27
328.15 K, 20000 kPa | 967.5
328.15 K, 25000 kPa | 971.57
328.15 K, 30000 kPa | 975.49
328.15 K, 35000 kPa | 979.25
328.15 K, 40000 kPa | 982.9
328.15 K, 45000 kPa | 986.42
328.15 K, 50000 kPa | 989.84
328.15 K, 55000 kPa | 993.13
328.15 K, 60000 kPa | 996.35
328.15 K, 65000 kPa | 999.44
333.15 K, 100 kPa | 944.28
333.15 K, 2000 kPa | 946.2
333.15 K, 5000 kPa | 949.16
333.15 K, 7000 kPa | 951.09
333.15 K, 10000 kPa | 953.92
333.15 K, 15000 kPa | 958.46
333.15 K, 20000 kPa | 962.79
333.15 K, 25000 kPa | 966.97
333.15 K, 30000 kPa | 970.97
333.15 K, 35000 kPa | 974.83
333.15 K, 40000 kPa | 978.55
333.15 K, 45000 kPa | 982.15
333.15 K, 50000 kPa | 985.62
333.15 K, 55000 kPa | 988.98
333.15 K, 60000 kPa | 992.25
333.15 K, 65000 kPa | 995.41
338.15 K, 100 kPa | 939.09
338.15 K, 2000 kPa | 941.08
338.15 K, 5000 kPa | 944.14
338.15 K, 7000 kPa | 946.13
338.15 K, 10000 kPa | 949.02
338.15 K, 15000 kPa | 953.67
338.15 K, 20000 kPa | 958.14
338.15 K, 25000 kPa | 962.41
338.15 K, 30000 kPa | 966.51
338.15 K, 35000 kPa | 970.46
338.15 K, 40000 kPa | 974.25
338.15 K, 45000 kPa | 977.91
338.15 K, 50000 kPa | 981.46
338.15 K, 55000 kPa | 984.88
338.15 K, 60000 kPa | 988.2
338.15 K, 65000 kPa | 991.43
